Experimental data taken from ChEMBL document CHEMBL1137480, “Synthesis and structure-activity relationship of 7-(substituted)-aminomethyl-4-quinolone-3-carboxylic acid derivatives” (2007).
Values after ≈ are worked out from the molar mass of the structure shown.

Key:
Assay type in all cases: functional
[1] = system: Staphylococcus aureus; assay: Antibacterial activity against Staphylococcus aureus 26003 after 24 hrs by agar dilution method
[2] = system: Salmonella; assay: Antibacterial activity against […] 48107 after 24 hrs by agar dilution method
[3] = system: Staphylococcus epidermidis; assay: Antibacterial activity against Staphylococcus epidermidis 26069 after 24 hrs by agar dilution method
[4] = system: Klebsiella pneumoniae; assay: Antibacterial activity against Klebsiella pneumoniae 46101 after 24 hrs by agar dilution method
[5] = system: Shigella boydii; assay: Antibacterial activity against Shigella boydii 51313 after 24 hrs by agar dilution method
[6] = system: Streptococcus pneumoniae; assay: Antibacterial activity against Streptococcus pneumoniae 31002 after 24 hrs by agar dilution method

`O=C(O)c1cn(C2CC2)c2c(F)c(CNc3cccc(Cl)c3)c(F)cc2c1=O` showed an MIC [1] of 0.195 µg/mL (≈ 0.482 µM), an MIC [2] of 1.56 µg/mL (≈ 3.85 µM) and an MIC [3] of 1.56 µg/mL (≈ 3.85 µM). It also gave an MIC [4] of 1.56 µg/mL (≈ 3.85 µM), an MIC [5] of 0.78 µg/mL (≈ 1.93 µM) and an MIC [6] of no more than 0.049 µg/mL.
`CN1CCN(Cc2c(F)cc3c(=O)c(C(=O)O)cn(C4CC4)c3c2F)CC1` showed an MIC [1] of 12.5 µg/mL (≈ 33.1 µM), an MIC [2] of 1.56 µg/mL (≈ 4.13 µM) and an MIC [3] of 12.5 µg/mL (≈ 33.1 µM). It also gave an MIC [4] of 1.56 µg/mL (≈ 4.13 µM), an MIC [5] of 1.56 µg/mL (≈ 4.13 µM) and an MIC [6] of 1.56 µg/mL (≈ 4.13 µM).
In the case of `O=C(O)c1cn(C2CC2)c2c(F)c(CNC3CC3)c(F)cc2c1=O`, the MIC [1] is reported as 3.13 µg/mL (≈ 9.36 µM), the MIC [2] is reported as 0.098 µg/mL (≈ 0.293 µM) and the MIC [3] is reported as 6.25 µg/mL (≈ 18.7 µM). For the same molecule, the MIC [4] was no more than 0.049 µg/mL, the MIC [5] was 0.098 µg/mL (≈ 0.293 µM) and the MIC [6] was 0.195 µg/mL (≈ 0.583 µM).
Work on `CCCNCc1c(F)cc2c(=O)c(C(=O)O)cn(C3CC3)c2c1F` yielded an MIC [1] greater than 6.25 µg/mL, an MIC [2] of 0.098 µg/mL (≈ 0.291 µM) and an MIC [3] greater than 6.25 µg/mL. For the same molecule, the MIC [4] was 0.39 µg/mL (≈ 1.16 µM), the MIC [5] was 0.195 µg/mL (≈ 0.58 µM) and the MIC [6] was 3.13 µg/mL (≈ 9.31 µM).
`O=C(O)c1cn(C2CC2)c2c(F)c(CN3CCNCC3)c(F)cc2c1=O` showed an MIC [1] of 6.25 µg/mL (≈ 17.2 µM), an MIC [2] of 0.195 µg/mL (≈ 0.537 µM) and an MIC [3] of 6.25 µg/mL (≈ 17.2 µM). It also gave an MIC [4] of 0.195 µg/mL (≈ 0.537 µM), an MIC [5] of 0.78 µg/mL (≈ 2.15 µM) and an MIC [6] of 6.25 µg/mL (≈ 17.2 µM).
`O=C(O)c1cn(C2CC2)c2c(F)c(CNc3ccc(F)cc3)c(F)cc2c1=O` showed an MIC [1] of 0.78 µg/mL (≈ 2.01 µM), an MIC [2] of 0.39 µg/mL (≈ 1 µM) and an MIC [3] of 1.56 µg/mL (≈ 4.02 µM). For the same molecule, the MIC [4] was 0.78 µg/mL (≈ 2.01 µM), the MIC [5] was 0.195 µg/mL (≈ 0.502 µM) and the MIC [6] was 0.049 µg/mL (≈ 0.126 µM).
`O=C(O)c1cn(C2CC2)c2c(F)c(CNc3ccc(F)c(Cl)c3)c(F)cc2c1=O` was tested, and the MIC [1] was 0.39 µg/mL (≈ 0.922 µM), the MIC [2] was 0.78 µg/mL (≈ 1.84 µM) and the MIC [3] was 1.56 µg/mL (≈ 3.69 µM). It also gave an MIC [4] of 1.56 µg/mL (≈ 3.69 µM), an MIC [5] of 1.56 µg/mL (≈ 3.69 µM) and an MIC [6] of 0.39 µg/mL (≈ 0.922 µM).
`Cc1ccc(NCc2c(F)cc3c(=O)c(C(=O)O)cn(C4CC4)c3c2F)cc1` was tested, and the MIC [1] was 0.39 µg/mL (≈ 1.01 µM), the MIC [2] was 0.78 µg/mL (≈ 2.03 µM) and the MIC [3] was 1.56 µg/mL (≈ 4.06 µM). It also gave an MIC [4] of 1.56 µg/mL (≈ 4.06 µM), an MIC [5] of 0.39 µg/mL (≈ 1.01 µM) and an MIC [6] of 0.049 µg/mL (≈ 0.127 µM).
With `CCNCc1c(F)cc2c(=O)c(C(=O)O)cn(C3CC3)c2c1F` the MIC [1] was greater than 6.25 µg/mL, the MIC [2] was 0.195 µg/mL (≈ 0.605 µM) and the MIC [3] was greater than 6.25 µg/mL. It also gave an MIC [4] of no more than 0.049 µg/mL, an MIC [5] of no more than 0.049 µg/mL and an MIC [6] of 0.78 µg/mL (≈ 2.42 µM).
Work on `O=C(O)c1cn(C2CC2)c2c(F)c(CNc3ccc(Cl)cc3)c(F)cc2c1=O` yielded an MIC [1] of 0.39 µg/mL (≈ 0.963 µM), an MIC [2] of 1.56 µg/mL (≈ 3.85 µM) and an MIC [3] of 1.56 µg/mL (≈ 3.85 µM). The MIC [4] was 1.56 µg/mL (≈ 3.85 µM), the MIC [5] was 1.56 µg/mL (≈ 3.85 µM) and the MIC [6] was no more than 0.049 µg/mL.
`Cc1cc(C)nc(NCc2c(F)cc3c(=O)c(C(=O)O)cn(C4CC4)c3c2F)c1` was tested, and the MIC [1] was 0.39 µg/mL (≈ 0.976 µM), the MIC [2] was 0.78 µg/mL (≈ 1.95 µM) and the MIC [3] was 1.56 µg/mL (≈ 3.91 µM). For the same molecule, the MIC [4] was 0.78 µg/mL (≈ 1.95 µM), the MIC [5] was 0.39 µg/mL (≈ 0.976 µM) and the MIC [6] was 0.098 µg/mL (≈ 0.245 µM).
For `Cc1ccc(NCc2c(F)cc3c(=O)c(C(=O)O)cn(C4CC4)c3c2F)cc1C`, the MIC [1] was 0.39 µg/mL (≈ 0.979 µM), the MIC [2] was 1.56 µg/mL (≈ 3.92 µM) and the MIC [3] was 0.78 µg/mL (≈ 1.96 µM). It also gave an MIC [4] of 1.56 µg/mL (≈ 3.92 µM), an MIC [5] of 1.56 µg/mL (≈ 3.92 µM) and an MIC [6] of 0.098 µg/mL (≈ 0.246 µM).
Work on `O=C(O)c1cn(C2CC2)c2c(F)c(CNc3ccccc3)c(F)cc2c1=O` yielded an MIC [1] of 0.78 µg/mL (≈ 2.11 µM), an MIC [2] of 0.39 µg/mL (≈ 1.05 µM) and an MIC [3] of 1.56 µg/mL (≈ 4.21 µM). For the same molecule, the MIC [4] was 0.78 µg/mL (≈ 2.11 µM), the MIC [5] was 0.39 µg/mL (≈ 1.05 µM) and the MIC [6] was 0.049 µg/mL (≈ 0.132 µM).
Work on `CCCCNCc1c(F)cc2c(=O)c(C(=O)O)cn(C3CC3)c2c1F` yielded an MIC [1] greater than 6.25 µg/mL, an MIC [2] of 0.195 µg/mL (≈ 0.557 µM) and an MIC [3] greater than 6.25 µg/mL. It also gave an MIC [4] of no more than 0.049 µg/mL, an MIC [5] of 0.39 µg/mL (≈ 1.11 µM) and an MIC [6] of 3.13 µg/mL (≈ 8.93 µM).
`CC(C)CNCc1c(F)cc2c(=O)c(C(=O)O)cn(C3CC3)c2c1F` was tested, and the MIC [1] was greater than 6.25 µg/mL, the MIC [2] was no more than 0.049 µg/mL and the MIC [3] was greater than 6.25 µg/mL. For the same molecule, the MIC [4] was 0.098 µg/mL (≈ 0.28 µM), the MIC [5] was 0.195 µg/mL (≈ 0.557 µM) and the MIC [6] was 1.56 µg/mL (≈ 4.45 µM).
`O=C(O)c1cn(C2CC2)c2c(F)c(CNC3CCCCC3)c(F)cc2c1=O` showed an MIC [1] greater than 6.25 µg/mL, an MIC [2] of 0.195 µg/mL (≈ 0.518 µM) and an MIC [3] of 6.25 µg/mL (≈ 16.6 µM). It also gave an MIC [4] of 0.195 µg/mL (≈ 0.518 µM), an MIC [5] of 0.78 µg/mL (≈ 2.07 µM) and an MIC [6] of 1.56 µg/mL (≈ 4.14 µM).
With `O=C(O)c1cn(C2CC2)c2c(F)c(Cn3ccnc3)c(F)cc2c1=O` the MIC [1] was 6.25 µg/mL (≈ 18.1 µM), the MIC [2] was 0.195 µg/mL (≈ 0.565 µM) and the MIC [3] was greater than 6.25 µg/mL. It also gave an MIC [4] of 0.195 µg/mL (≈ 0.565 µM), an MIC [5] of 0.39 µg/mL (≈ 1.13 µM) and an MIC [6] of 0.78 µg/mL (≈ 2.26 µM).
Work on `CCN(Cc1c(F)cc2c(=O)c(C(=O)O)cn(C3CC3)c2c1F)c1ccccc1` yielded an MIC [1] of 3.13 µg/mL (≈ 7.86 µM), an MIC [2] of 3.13 µg/mL (≈ 7.86 µM) and an MIC [3] of 6.25 µg/mL (≈ 15.7 µM). For the same molecule, the MIC [4] was 6.25 µg/mL (≈ 15.7 µM), the MIC [5] was 3.13 µg/mL (≈ 7.86 µM) and the MIC [6] was 3.13 µg/mL (≈ 7.86 µM).
Work on `CCn1cc(C(=O)O)c(=O)c2cc(F)c(CNC)c(F)c21` yielded an MIC [1] greater than 6.25 µg/mL, an MIC [2] of 0.39 µg/mL (≈ 1.32 µM) and an MIC [3] greater than 6.25 µg/mL. The MIC [4] was 0.195 µg/mL (≈ 0.658 µM), the MIC [5] was 0.39 µg/mL (≈ 1.32 µM) and the MIC [6] was 3.13 µg/mL (≈ 10.6 µM).
Molecule `CCNCc1c(F)cc2c(=O)c(C(=O)O)cn(CC)c2c1F` has an MIC [1] greater than 6.25 µg/mL, an MIC [2] of 0.39 µg/mL (≈ 1.26 µM) and an MIC [3] greater than 6.25 µg/mL. It also gave an MIC [4] of 0.195 µg/mL (≈ 0.628 µM), an MIC [5] of 0.39 µg/mL (≈ 1.26 µM) and an MIC [6] of 3.13 µg/mL (≈ 10.1 µM).
`CCNCc1c(F)cc2c(=O)c(C(=O)O)cn3c2c1OC[C@@H]3C` was tested, and the MIC [1] was greater than 6.25 µg/mL, the MIC [2] was 0.195 µg/mL (≈ 0.609 µM) and the MIC [3] was greater than 6.05 µg/mL. For the same molecule, the MIC [4] was 0.049 µg/mL (≈ 0.153 µM), the MIC [5] was 0.195 µg/mL (≈ 0.609 µM) and the MIC [6] was 1.56 µg/mL (≈ 4.87 µM).
`CCCNCc1c(F)cc2c(=O)c(C(=O)O)cn3c2c1OC[C@@H]3C` was tested, and the MIC [1] was greater than 6.25 µg/mL, the MIC [2] was 0.39 µg/mL (≈ 1.17 µM) and the MIC [3] was greater than 6.25 µg/mL. For the same molecule, the MIC [4] was 0.195 µg/mL (≈ 0.583 µM), the MIC [5] was 0.39 µg/mL (≈ 1.17 µM) and the MIC [6] was 3.13 µg/mL (≈ 9.36 µM).
